Measurements as given in patent US11472812B2, “Anti-cancer compounds targeting Ral GTPases and methods of using the same” (The Regents of the University of Colorado, a body corporate, priority 2014, dated 2022).

Key:
[1] = test system: H2122 human lung cancer cells; assay: Cellular uptake, LC/MS-MS of cell lysates; format: in vitro ADME; details: 10 μM, 1-60 min
Procedure: To quantitate how well the test compounds get into cells, H2122 human lung cancer cells were seeded at 3×10^5 cells per well in 6-well plates and let sit for 16 h. Compounds (10 μM) were individually dosed in triplicate; cells were then collected into 500 μl ice-cold ACN:MeOH:H2O (1:1:1) at different time points (1, 5, 15, 30 and 60 min). Drug concentrations in cell lysates were then determined using LC/MS-MS methods as described with respect to the pharmacokinetic and pharmacodynamic studies in mice, described in detail in Example 5, below.

[2] = biological target: T1, RalA (Homo sapiens, UniProt P11233); assay: RalBP1 pull-down of Ral activity in H2122 xenograft tumors; format: in vivo; details: single i.p. dose, RBC8 50 mg/kg or BQU57 10/20/50 mg/kg, tumors collected 3 h post-dose
T1 sequence (P11233 1-206): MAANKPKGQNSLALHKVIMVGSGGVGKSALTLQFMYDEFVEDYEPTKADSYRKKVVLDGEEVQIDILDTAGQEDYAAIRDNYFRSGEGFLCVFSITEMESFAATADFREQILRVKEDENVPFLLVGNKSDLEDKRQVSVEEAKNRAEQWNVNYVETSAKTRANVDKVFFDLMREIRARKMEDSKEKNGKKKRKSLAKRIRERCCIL
Procedure: (§1) Finally, we evaluated Ral GTPase activity in vivo in the H2122 xenografts. Nude mice were inoculated with 5×10^6 cells H2122 cells s.c. at four sites per mice. Tumor size reached an average of 250 mm^3 in ten days, at which time mice were given a signal i.p. dose of RBC8 or BQU57 at various concentrations. Tumors were then collected 3 h after injection of RBC8 or BQU57. RalA and RalB activity in tumor samples were then measured using the RalBP1 pull-down assay kit (Millipore #14-415). Ras and RhoA activity in tumor samples were measured using the respective pull-down assay kits. All the activity assays used western blotting as the final readout. For quantification of the immunoblots, the bands on each blot were first normalized to their respective internal control (10 ng of recombinant Ral, Ras, or […] protein run in the last lane) the numbers were then compared across different blots, each of which represented one treatment condition. Mice bearing H2122 tumors (median size 250 mm^3) were given a single intraperitoneal dose of RBC8 (50 mg/kg) or BQU57 (10/20/50 mg/kg) and tumors collected 3 h post-dose.

[3] = biological target: T2, RalB (Homo sapiens, UniProt P11234); assay: as above; format: in vivo; details: single i.p. dose, RBC8 50 mg/kg or BQU57 10/20/50 mg/kg, tumors collected 3 h post-dose
T2 sequence (P11234 1-206): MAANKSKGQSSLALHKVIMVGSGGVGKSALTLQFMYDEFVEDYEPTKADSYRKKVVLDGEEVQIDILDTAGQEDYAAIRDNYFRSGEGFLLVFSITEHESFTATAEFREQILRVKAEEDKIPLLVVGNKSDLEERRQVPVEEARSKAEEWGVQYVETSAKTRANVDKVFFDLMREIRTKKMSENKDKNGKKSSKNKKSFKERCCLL
Procedure: as §1

[4] = biological target: T1, RalA; assay: Ral activity pull-down assay with RalBP1 agarose beads in cells; format: cell-based; set-up: endogenous in cells; host or cells: H2122 and H358 human lung cancer cells; details: H2122 and H358 cells, 10 μM compound, 3 hrs
Procedure: (§2) FIGS. 6A-6E show the cellular uptake of Ral inhibitors in vitro. H2122 human lung cancer cells were treated with 10 μM of RBC8 (FIG. 6A), BQU57 (FIG. 6B), BQU85 (FIG. 6C), and RBC5 (FIG. 6D). Cells were collected at different time points (1, 5, 15, 30 and 60 min), and drug concentrations in cells determined using LC/MS-MS methods (n=3 for each time point). […] Cells were grown under anchorage-independent conditions and treated with 10 μM compounds for 3 hours. Ral activity in cell lysates were then determined using the pull down assay with RalBP1 agarose beads. Data represent three independent experiments.
(§3) To confirm that Ral activity is inhibited in H2122 and H358 cells by drug treatment, we performed the Ral activity pull-down assay. Cells were treated with drug for 3 hrs, collected and Ral activity measured using the RalBP1 pull-down assay kit (Millipore #14-415). RBC8 and BQU57 but not RBC5 inhibited both RalA and RalB activity in both cell lines (FIG. 6E).

[5] = biological target: T2, RalB; assay: as above; format: cell-based; set-up: endogenous in cells; host or cells: H2122 and H358 human lung cancer cells; details: H2122 and H358 cells, 10 μM compound, 3 hrs
Procedure: as §2, §3

SMILES	cellular uptake [1]	inhibition of RalA activity in tumors [2]	inhibition of RalB activity in tumors [3]	inhibition of RalA activity [4]	inhibition of RalB activity [5]
Cc1nn(C)c2c1C(c1ccc(C(F)(F)F)cc1)C(C#N)=C(N)O2 (stereo not shown) [BQU57, 6-amino-1,3-dimethyl-4-(4-(trifluoromethyl)phenyl)-1,4-dihydropyrano[2,3-c]pyrazole-5-carbonitrile]	readily get into cells	significant inhibition	significant inhibition	inhibited	inhibited
COc1ccc(OC)c(C2C(C#N)=C(N)Oc3n[nH]c(-c4ccc5ccccc5c4)c32)c1 (stereo not shown) [RBC8]	readily get into cells	significant inhibition	significant inhibition	inhibited	inhibited
